Data from patent US20170202854A1, “Method for Treatment of Primary Hormone Resistant Endometrial and Breast Cancers” (Lipoxen Technologies Limited, priority 2014, published 2017).
Read-outs that look alike come from different tables or passages of the source.

Experiments:
[1] = test system: human primary PR-negative endometrial cancer cells HEC-1B; assay: Mouse model of primary PR-negative endometrial cancer (HEC-1B xenograft); type: in vivo, BNX nu/nu mice; settings: mean±SD of 20 tumors, MA 10 mg/day i.p. 5 days/week, SC 0.3 mg/kg i.m. each alternate day
Method: Treatment was started on the next day after the injection and discontinued after 5 weeks. Cohorts (10 mice/group) received either:
1) Vehicle control group: vehicle only, 0.9% sodium chloride for injection i.m each alternate day and i.p. for 5 days/week. 2) MA only control group: megestrol acetate (MA) (10 mg/day) i.p. for 5 days/week.
Tumors were measured every week with vernier calipers. Tumor size was calculated using the formula: A (length)×B (width)×C (height)×0.5236.

[2] = test system: secondary PR negative Ishikawa cells; assay: Model of secondary PR-negative endometrial cancer (progestin-resistant Ishikawa xenograft); type: in vivo, MF-1 female nude mice; settings: MPA 250 mg/kg/day i.p. 5 days per week, SC 0.3 mg/kg i.m. each alternate day
Method: to obtain the secondary progestin-resistant subclones of human endometrial cancer cells, initially progestin sensitive PR-positive effect parent Ishikawa cells were routinely cultured in DMEM/F12 medium supplemented with 5% fetal bovine serum and medroxyprogesterone acetate (MPA) with 2.5 μM increases in MPA concentration (1.0-10 μM) every 4 weeks at 37° C. in a humidified atmosphere of 5% CO2. When the surviving cells had grown to a high density but were still less than confluent, cells were subcloned using 0.02% EDTA and 0.25% trypsin prepared in Hanks' balanced salt solution. MPA-containing medium was replaced every 2-3 days. Cells proliferating in 10 μM MPA with the same doubling time as the initial Ishikawa cells proliferating in the medium without MPA, were considered as secondary progestin-resistant Ishikawa cells. […] 2×10^6 secondary PR negative Ishikawa cells were inoculated into the flanks of MF-1 female nude mice in 100 μl Matrigel.
1) Vehicle control group: vehicle only, −0.9% sodium chloride for injection i.m each alternate day and i.p. for 5 days per week. 2) MPA only control group: medroxyprogesterone acetate (MPA) (250 mg/kg/day) i.p. for 5 days per week.
Tumors were measured with vernier calipers weekly. Tumor volumes (mm^3) were calculated using the modified ellipsoid formula: (length (mm)×width (mm)^2)/2. The ratio (percentage) of “Tumor volume at day n” to “tumor volume at day “0” was calculated for each animal. At the end of the experiments (day 35) animals were euthanized.

MDA-MB-468 tumor cells = settings: day 21, alone or with SC 6 mg/mouse i.m. twice a week
Method: The MDA-MB-468 (ATCC collection number ATCC® HTB-132, Neve et al., Cancer Cell 2006, 10:515-527) tumor cells (the xenograft of human primary ER-negative breast cancer) were maintained in vitro as a monolayer culture in L-15 medium supplemented with 10% heat inactivated fetal bovine serum, 100 U/ml penicillin and 100 μg/ml streptomycin, and L-glutamine (2 mM) at 37° C. in an atmosphere of 5% CO2 in air. The tumor cells were routinely subcultured twice weekly by trypsin-EDTA treatment. The cells growing in an exponential growth phase were harvested and counted for tumor inoculation.
BALB/c nude (Shanghai Sino-British SIPPR/BK Laboratory Animal Co., Ltd.), 6-8 weeks old female mice were inoculated subcutaneously at the right flank with MDA-MB-468 tumor cells (1×10^7) in 0.2 ml of PBS supplemented with BD Matrigel (1:1) for tumor development. The treatments were started on day 17 after tumor inoculation when the average tumor size reached approximately 170 mm^3. […] Each group consisted of 8 tumor-bearing mice.
Tumor size was measured twice weekly in two dimensions using a caliper, and the volume was expressed in mm3 using the formula: V=0.5 a×b2 where a and b are the long and short diameters of the tumor, respectively.
Significance level was assumed as 0.05.

[3] = TAM 50 mg/kg oral gavage every day
[4] = TAM 100 mg/kg oral gavage every day

Compound `CC(=O)O[C@]1(C(C)=O)CC[C@H]2[C@@H]3C=C(C)C4=CC(=O)CC[C@]4(C)[C@H]3CC[C@@]21C` [MA, megestrol acetate] has a Tumor volume ([1]; Week 1) of 58 ± 16 mm^3, a Tumor volume ([1]; Week 2) of 177 ± 19 mm^3 and a Tumor volume ([1]; Week 3) of 510 ± 66 mm^3. The Tumor volume ([1]; Week 4) was 794 ± 111 mm^3 and the Tumor volume ([1]; Week 5) was 1383 ± 151 mm^3.

For `CC(=O)O[C@]1(C(C)=O)CC[C@H]2[C@@H]3C[C@H](C)C4=CC(=O)CC[C@]4(C)[C@H]3CC[C@@]21C` [MPA, medroxyprogesterone acetate], the “Tumor volume at day n/tumor volume at day "0", %, mean ± SEM” value (shortened to “Tumor volume … %, mean ± SEM”) ([2]; Day 7) was 170 ± 19%, the “Tumor volume … %, mean ± SEM” value ([2]; Day 14) was 412 ± 36% and the “Tumor volume … %, mean ± SEM” value ([2]; Day 21) was 512 ± 66%. The “Tumor volume … %, mean ± SEM” value ([2]; Day 28) was 822 ± 89% and the “Tumor volume … %, mean ± SEM” value ([2]; Day 35) was 1224 ± 99%.

For `CC/C(=C(\c1ccccc1)c1ccc(OCCN(C)C)cc1)c1ccccc1` [TAM, Tamoxifen], the TGI (MDA-MB-468 tumor cells; [3]) was −65%, the “Tumor volume” value (MDA-MB-468 tumor cells; [3]) was 473 ± 59 mm^3 and the TGI (MDA-MB-468 tumor cells; [4]) was −1%. For the same compound, the “Tumor volume” value (MDA-MB-468 tumor cells; [4]) was 355 ± 25 mm^3.
